Test system: paracellular tight junctions
Assay: 3 kDa dextran tracer uptake probing paracellular permeability after ALPL inhibitor treatment
Type: in vivo
Settings: young and aged mice, vs vehicle
From the text: FIGS. 14A-14D are graphs illustrating flow cytometry quantification of brain endothelial cell uptake of plasma from young mice (3 m.o.) (FIG. 14A), plasma from aged mice (22 m.o.) (FIG. 14B), human holo-transferrin (hu-Tf) from aged mice (FIG. 14C), or transferrin receptor antibody (TfR Ab) from aged mice (FIG. 14D) treated with vehicle (grey) or anti-ALPL (green) via IP injections twice daily for three days, as assessed by % of BECs that are tracer^+ and relative MFI of tracer^+ BECs (for plasma, n=4; for hu-Tf, n=6 vehicle, n=5 anti-ALPL; for TfR Ab, n=9, two-sided t-test, mean+/−s.e.m.). Tracer refers to plasma, hu-Tf, or TfR Ab. FIG. 14E includes representative images of hu-Tf^+ neurons detected in the cortex of mice treated with ALPL inhibitor. Scale bar=40 microns. FIG. 14F includes graphs showing circulating human holo-transferrin and transferrin receptor antibody in blood plasma upon time of sacrifice to control for and ensure no differences in injected amount (for hu-Tf+, n=6 vehicle, n=5 anti-ALPL; for TfR Ab, n=9, two-sided t-test, mean+/−s.e.m.). […] FIG. 14H includes graphs illustrating flow cytometry quantification of brain endothelial cell and brain parenchymal cell uptake of 3 kDa dextran tracer, which probes for disruptions in paracellular permeability, in young mice (3 m.o.) and aged mice (22 m.o.) (n=6 vehicle, n=5 anti-ALPL, two-sided t-test, mean+/−s.e.m.). […]

For `COc1ccc(OC)c(S(=O)(=O)Nc2cnc3ccccc3c2)c1` [ALPL inhibitor, 2,5-Dimethoxy-N-(quinolin-3-yl)benzenesulfonamide], the paracellular tight junctions was “did not perturb vascular morphology or compromise”.

Source: patent publication US20230257480A1, “ENHANCING BLOOD-BRAIN BARRIER DRUG TRANSPORT BY TARGETING ENDOGENOUS REGULATORS” (THE BOARD OF TRUSTEES OF THE LELAND STANFORD JUNIOR …, priority 2019, published 2023)
